The values below come from ChEMBL document CHEMBL3045404, “Structure-Activity Relationships of 2-Chloropyridine-3-carboxamide Fungicides” (J Pestic Sci, 1992).

The structures appear in SMILES notation. Where only a bound is given, the exact number is not on record here.

For orientation: EC50 means the concentration that produces a half-maximal response. Low readings indicate greater potency, high ones weaker potency.

In one assay the test system is Botrytis cinerea. Kind of assay: Antifungal activity against Botryotinia fuckeliana infested in cucumber seedling cotyledons after 4 days by pot test. It is filed as functional.
In the next assay the test system is Rhizoctonia solani. In words: Antifungal activity against Rhizoctonia solani infested in rice seedling incubated for 40 hr in moist chamber followed by incubation for 3 days in greenhouse conditions. It is filed as functional, organism-based.

In turn, `CC1CCc2c(NC(=O)c3cccnc3Cl)cccc21` (stereo unspecified) showed a pEC90 in the assay on Botrytis cinerea of 3.03. The same molecule gave an EC50 in the assay on Rhizoctonia solani of 52.5 µM.
The like results for `CC1(C)CCc2c(NC(=O)c3cccnc3Cl)cccc21` were, in that order, 2.97 and 28.8 µM.
The like results for `C=C(C)c1ccccc1NC(=O)c1cccnc1Cl` were, in that order, 3.78 and 1170 µM.
The like results for `O=C(Nc1ccccc1-c1ccccc1)c1cccnc1Cl` were, in that order, 2.8 and greater than 6310 µM.
In the assay on Botrytis cinerea, `CC(C)Oc1cccc(NC(=O)c2cccnc2Cl)c1` had a pEC90 of less than 2.2. Also, the EC50 in the assay on Rhizoctonia solani is 57.5 µM.
The like results for `CCC1CC(C)(C)c2cccc(NC(=O)c3cccnc3Cl)c21` (stereo unspecified) were, in that order, 4.75 and 7.24 µM.
The like results for `CCC1CC(C)(CC)c2cccc(NC(=O)c3cccnc3Cl)c21` (stereo unspecified) were, in that order, 4.58 and 33.9 µM.
Take `CCOc1c(NC(=O)c2cccnc2Cl)cccc1C(C)C`: in the assay on Botrytis cinerea, the pEC90 was determined as 3.32. In addition, the EC50 in the assay on Rhizoctonia solani was 112 µM.
The like results for `CC1Oc2cccc(NC(=O)c3cccnc3Cl)c2C1C` (stereo unspecified) were, in that order, less than 2.2 and 631 µM.
The like results for `CCCCC1(CC)Cc2cccc(NC(=O)c3cccnc3Cl)c2O1` (stereo unspecified) were, in that order, 3.04 and 1550 µM.
The like results for `CCC1OC(C)(C)c2cccc(NC(=O)c3cccnc3Cl)c21` (stereo unspecified) were, in that order, 3.55 and 12.3 µM.
`CC1Cc2cccc(NC(=O)c3cccnc3Cl)c2C1` (stereo unspecified) had a pEC90 in the assay on Botrytis cinerea of 3.11. In the assay on Rhizoctonia solani, this molecule had an EC50 of 692 µM.
The like results for `O=C(Nc1cccc2c1OCC2)c1cccnc1Cl` were, in that order, less than 2.2 and 1620 µM.
`CC1(C)OCc2cccc(NC(=O)c3cccnc3Cl)c2O1` returned a pEC90 in the assay with Botrytis cinerea of 3.29. The midpoint of the response in the assay with Rhizoctonia solani, the EC50, lay at 1450 µM.
The like results for `CC1(C)Oc2cccc(NC(=O)c3cccnc3Cl)c2O1` were, in that order, 2.76 and 759 µM.
The like results for `CCOc1ccccc1NC(=O)c1cccnc1Cl` were, in that order, 2.48 and 1100 µM.
`O=C(Nc1cccc2c1CCC2)c1cccnc1Cl` came in with a pEC90 in the assay with Botrytis cinerea of 2.68. Further, it took 692 µM to reach a half-maximal effect in the assay with Rhizoctonia solani (EC50).
The like results for `CC1CC(C)(C)c2cccc(NC(=O)c3cccnc3Cl)c21` (stereo unspecified) were, in that order, 4.7 and 7.76 µM.
In the assay on Botrytis cinerea, `CCc1ccccc1NC(=O)c1cccnc1Cl` had a pEC90 of 2.57. The molecule further gave an EC50 with Rhizoctonia solani of 2000 µM.
The like results for `CCc1c(C)cccc1NC(=O)c1cccnc1Cl` were, in that order, 2.96 and 724 µM.
The like results for `CC1(C)CCc2cccc(NC(=O)c3cccnc3Cl)c2O1` were, in that order, 3.66 and 1450 µM.
In the assay on Botrytis cinerea, `CC1CCc2cccc(NC(=O)c3cccnc3Cl)c21` (stereo unspecified) showed a pEC90 of 4.15. Moreover, in the assay on Rhizoctonia solani, the EC50 is 631 µM.
The like results for `CC1SCc2cccc(NC(=O)c3cccnc3Cl)c21` (stereo unspecified) were, in that order, 2.93 and 933 µM.
The like results for `CCC1(CC)CCc2cccc(NC(=O)c3cccnc3Cl)c2O1` were, in that order, 4.41 and 1150 µM.
The like results for `Cc1oc2cccc(NC(=O)c3cccnc3Cl)c2c1C` were, in that order, less than 2.2 and 603 µM.
For the molecule `CCc1cccc(NC(=O)c2cccnc2Cl)c1`, the pEC90 in the assay on Botrytis cinerea was less than 2.2. Moreover, the EC50 in the assay on Rhizoctonia solani is 158 µM.
With `CCC1(C)Oc2c(NC(=O)c3cccnc3Cl)cccc2C(C)O1` (stereo unspecified), in the assay with Botrytis cinerea, the pEC90 came to 3.57. The molecule also showed an EC50 in the assay on Rhizoctonia solani of 13.2 µM.
The like results for `CC(C)c1ccccc1NC(=O)c1cccnc1Cl` were, in that order, 3.19 and 1510 µM.
The like results for `CCOc1cccc(NC(=O)c2cccnc2Cl)c1` were, in that order, less than 2.2 and 85.1 µM.
The like results for `CC1OCc2cccc(NC(=O)c3cccnc3Cl)c21` (stereo unspecified) were, in that order, 2.93 and 525 µM.
`O=C(Nc1ccccc1)c1cccnc1Cl` came in with a pEC90 in the assay on Botrytis cinerea of 2.2. The molecule also gave an EC50 in the assay on Rhizoctonia solani of 1000 µM.
The molecule `CC1(C)Cc2cccc(NC(=O)c3cccnc3Cl)c2O1` had a pEC90 in the assay with Botrytis cinerea of 3.84. The EC50 in the assay with Rhizoctonia solani was 214 µM.
The like results for `CC1OC(C)(C)c2cccc(NC(=O)c3cccnc3Cl)c21` (stereo unspecified) were, in that order, 3.93 and 14.1 µM.
